Test results as given in US11850306B2, “Method for drying hydrogel comprising nanofibrillar cellulose and a dried hydrogel comprising nanofibrillar cellulose” (UPM-KYMMENE CORPORATION, priority 2016, dated 2023).
Where “and” joins values, the source holds several entries; their conditions need not be identical. Equal values may be shown once. Read-outs that look alike come from different tables or passages of the source.

Tests used:
[1] = cited from earlier work; for Solubility in aqueous media (intrinsic solubility): 25° C.
[2] = In vitro release studies: diffusion coefficients of model compounds from NFC hydrogels; assay type: physicochemical; settings: for Diffusion coefficient in NFC-hydrogels: pH 7.4, 37° C.
Procedure: (§1) In vitro drug release studies were performed with modified intrinsic dissolution disc dies filled with 1.07 g of formulations with a constant flat surface area of 1.33 cm^2. Discs were placed in 150 ml amber glass vessels on top of a holder. The vessels were filled to a final volume of 70 ml with pH 7.4 phosphate buffered saline (1×DPBS) and kept at 37° C. under constant magnetic stirring (400 rpm) on top of a multi-position magnetic stirrer IKA RT10 (IKA-Werke GmbH & Co KG, Germany). […] All experiments were done in triplicate.
The flow rate was 0.5 ml/min and the injection volume 5 μl. […] During the gradient run the mobile phase consisted of a mixture of acetonitrile and 15 mM phosphate buffer pH 2 in 25:75 ratio at 0-3 min. After 3 min the mobile phase composition was changed to 75:25 ratio. […] For nadolol, the used column was HSS-T3 1.8 μm (2.1×50 mm) (Waters, USA) at 30° C. The flow rate was 0.5 ml/min and the injection volume 5 μl. […] During the gradient run the mobile phase consisted of a mixture of acetonitrile and 15 mM phosphate buffer pH 2 in 10:90 ratio at 0-3 min. After 3 min the mobile phase composition was changed to 50:50 ratio.
200 μl of samples were pipetted into wells of 96-well OptiPlate plates (PerkinElmer, Finland). Excitation wavelength 490 nm, emission wavelength 520 nm and 12 nm bandwidth were used.
For metronidazole, absorbance was measured in 1 cm cell at 320 nm with 12 nm bandwidth against blank.
Sample and reagent were mixed thoroughly with a multi-channel pipet and incubated for 20 minutes at room temperature before absorbance measurement.
Mathematical equations were used for the modelling of diffusion controlled drug release that take into consideration structure of the device, the ratio of initial drug concentration to drug solubility and the device geometry. The diffusion coefficients were calculated by Higuchi equation (1) for small molecules with a presumption that these systems could be described as monolithic dispersions (Equations 1 and 2 below). For large molecules (1 kDa) equations we used to solve Fick's second law of diffusion and diffusion coefficients (2) with a presumption that these systems could be described as monolithic solutions (FIG. 2).
as §1, with “cm2.” for “cm^2.”

[3] = cited from earlier work
[4] = nitrogen; cited from earlier work
[5] = 3% NFC/exp (PEG6000 and trehalose), before freeze drying
[6] = 6.5% NFC/exp (PEG6000 and trehalose), before freeze drying
[7] = FD 3% NFC/exp, freeze dried and redispersed
[8] = FD 6.5% NFC/exp, freeze dried and redispersed

Molecule	Solubility in aqueous media ([1]; condition not given) [mg/mL]	Diffusion coefficients for model compounds in different NFC hydrogels ([2]; 3% NFC, no excipients)	Diffusion coefficients for model compounds in different NFC hydrogels ([2]; 6.5% NFC, no excipients)	Diffusion coefficient in NFC-hydrogels ([2]; NFC hydrogel 11804-3 (3.2%))	Diffusion coefficient in NFC-hydrogels ([2]; NFC hydrogel 11814-1 (5.7%))	Diffusion coefficient in NFC-hydrogels ([2]; NFC hydrogel 11814-3 (5.7%))	Diffusion coefficient in NFC-hydrogels ([2]; NFC hydrogel 11815-3 (6.8%))	Solubility in aqueous media (intrinsic solubility) [1]	Solubility in aqueous media ([1]; pH 7)	Charge at pH 7.0 ([3]; pH 7.0)	Charge of compounds at pH 7.4 ([3]; pH 7.4)	Diffusion coefficients for model compounds in different NFC hydrogels [2, 5]	Diffusion coefficients for model compounds in different NFC hydrogels [2, 6]	Diffusion coefficients for model compounds in different NFC hydrogels [2, 7]	Diffusion coefficients for model compounds in different NFC hydrogels [2, 8]	Onset degradation temp Td, N2 [4] [°C]	pKa/pI [3]
Lysozyme: Lysozyme from hen egg white, 14.7 kDa model compound	>10	3.53 10^−8 cm^2/s	1.75 10^−8 cm^2/s	3.53 10^−8 cm^2/s	1.79 10^−8 cm^2/s	2.57 10^−8 cm^2/s	1.75 10^−8 cm^2/s	–	–	–	–	–	–	–	–	–	–
Cc1ncc([N+](=O)[O-])n1CCO [Metronidazole]	–	716.99 10^−8 cm^2/s	617.51 10^−8 cm^2/s	716.99 10^−8 cm^2/s	609.51 10^−8 cm^2/s	551.09 10^−8 cm^2/s	617.51 10^−8 cm^2/s	10.5 (25° C.), mg/ml and 10.5 mg/ml	10.5 (pH 7) mg/ml	ø	Metronidazole (ø)	657.41 10^−8 cm^2/s	617.16 10^−8 cm^2/s	699.10 10^−8 cm^2/s	660.18 10^−8 cm^2/s	160	–
CC(C)(C)NCC(O)COc1cccc2c1CC(O)C(O)C2 (stereo not drawn) [Nadolol]	–	286.24 10^−8 cm^2/s	230.62 10^−8 cm^2/s	286.24 10^−8 cm^2/s	273.21 10^−8 cm^2/s	287.50 10^−8 cm^2/s	230.62 10^−8 cm^2/s	8.3 (25° C.), mg/ml	8.3 (pH 7) mg/ml	–	–	292.92 10^−8 cm^2/s	245.04 10^−8 cm^2/s	296.36 10^−8 cm^2/s	267.21 10^−8 cm^2/s	196.2	9.28
Polyethylene glycol 6000 [PEG 6000]	–	–	–	–	–	–	–	–	–	–	–	–	–	–	–	257	–
CC(C(=O)O)c1cccc(C(=O)c2ccccc2)c1 (stereo not drawn) [Ketoprofen]	–	152.62 10^−8 cm^2/s	141.86 10^−8 cm^2/s	152.62 10^−8 cm^2/s	131.41 10^−8 cm^2/s	148.23 10^−8 cm^2/s	141.86 10^−8 cm^2/s	–	–	–	–	147.15 10^−8 cm^2/s	141.20 10^−8 cm^2/s	129.97 10^−8 cm^2/s	124.44 10^−8 cm^2/s	–	–
OC[C@H]1O[C@H](O[C@H]2O[C@H](CO)[C@@H](O)[C@H](O)[C@H]2O)[C@H](O)[C@@H](O)[C@@H]1O [Trehalose, D-(+)-trehalose dihydrate]	–	–	–	–	–	–	–	–	–	–	–	–	–	–	–	230	–
